Data as given in US20080194646A1, “Methods For Avoiding Edema in the Treatment of Metabolic, Inflammatory, and Cardiovascular Disorders” (priority 2005, published 2008).

Tests used:
C57BL/6j ob/ob Mice [1] = test: glucose lowering activity of halofenate analogs in ob/ob mice (Example 14); assay type: in vivo; settings: for plasma glucose concentrations vs vehicle: Student unpaired t-test; for Glucose 6 hours / Glucose 30 hours / Glucose 54 hours: plasma glucose; for Predose Glucose: baseline before dosing
Description: Male, 8-9 weeks old, C57BL/6J ob/ob mice were purchased from The Jackson Laboratory (Bar Harbor, Me., USA). Animals were housed (4-5 mice/cage) under standard laboratory conditions at 22±3° C. temperature and 50±20% relative humidity, and were maintained on a diet of Purina rodent chow and water ad libitum. Prior to treatment, blood was collected from the tail vein of each animal. Mice that had non-fasting plasma glucose levels between 250 and 500 mg/dl were used. Each treatment group consisted of 8-10 mice that were distributed so that the mean glucose levels were equivalent in each group at the start of the study. Mice were dosed orally by gavage once a day for 1-3 days with either vehicle, (−) halofenic acid, (+) analog 14, 29, 33, 34, 35, 36, 37, or 38 at 125 mg/kg or (−) analog 29, 36, 37 or 38 at 150 mg/kg. Compounds were delivered in a liquid formulation containing 5% (v/v) dimethyl sulfoxide (DMSO), 1% (v/v) tween 80 and 0.9% (w/v) methylcellulose. The gavage volume was 10 ml/kg. Blood samples were taken at 6 hours after the each dose and analyzed for plasma glucose. Food intake and body weight were measured daily. Plasma glucose concentrations were determined colorimetrically using glucose oxidase method (Sigma Chemical Co, St. Louis, Mo., USA). Significant difference between groups (comparing drug-treated to vehicle-treated) was evaluated using the Student unpaired t-test.

C57BL/6j ob/ob Mice [2] = test: anti-diabetic activity in C57BL/6j ob/ob mice (Example 20); assay type: in vivo; settings: oral gavage once a day for 1-4 days; for Potency / minimal effective dose: glucose lowering, plasma glucose 6 hours after each dose; for minimal effective dose: Mus musculus, read-out: Potency
Description: The anti-diabetic activities of the compounds were evaluated in the C57BL/6j ob/ob Mice model. Male, 7-9 weeks old, C57BL/6J ob/ob mice were purchased from The Jackson Laboratory (Bar Harbor, Me., USA). Animals were housed (4-5 mice/cage) under standard laboratory conditions at 22±3° C. temperature and 50±20% relative humidity, and were maintained on a diet of Purina rodent chow and water ad libitum. Prior to treatment, blood was collected from the tail vein of each animal. Mice that had non-fasting plasma glucose levels between 250 and 500 mg/dl were used. Each treatment group consisted of 8-10 mice that were distributed so that the mean glucose levels were equivalent in each group at the start of the study. Mice were dosed orally by gavage once a day for 1-4 days with vehicle and one or more dose of test compound at a dose ranging from 5 to 125 mg/kg. Compounds were delivered in a liquid formulation containing 5% (v/v) dimethyl sulfoxide (DMSO), 1% (v/v) Tween 80® and 0.9% (w/v) methylcellulose. The gavage volume was 10 ml/kg. […] Food intake and body weight were measured daily. Plasma glucose concentrations were determined colorimetrically using a commercial glucose oxidase method (Sigma Chemical Co, St. Louis, Mo., USA). Significant difference between groups (comparing drug-treated to vehicle-treated) was evaluated using the Student unpaired t-test. Table 1 provides the relative potency of some selected compounds of the invention.

[3] = 125 mg/kg oral gavage once a day for 1-3 days
[4] = 125 mg/kg oral gavage once a day
[5] = group later dosed 125 mg/kg orally
[6] = 150 mg/kg oral gavage, single dose
[7] = group later dosed 150 mg/kg orally

## NC(=O)COC(=O)C(Oc1cccc(C(F)(F)F)c1)c1ccc(Cl)cc1 (racemic) [(±)Analog 37]
C57BL/6j ob/ob Mice [1]; [3]
  plasma glucose concentrations vs vehicle: significantly lowered plasma glucose concentrations at 54 hours
C57BL/6j ob/ob Mice [1]; [4]
  Glucose 6 hours: 345.4 ± 19.7 mg/dL
  Glucose 30 hours: 312.5 ± 21.7 mg/dL
  Glucose 54 hours: 285.1 ± 14.7 mg/dL
C57BL/6j ob/ob Mice [1]; [5]
  Predose Glucose: 387.4 ± 18.8 mg/dL

## O=C(O)C(Oc1ccc(C(F)(F)F)cc1Cl)c1cccc(C(F)(F)F)c1 (stereo not drawn) [Compound 85]
C57BL/6j ob/ob Mice [2]
  Potency: ++ (effective for glucose lowering at the dose of ≦125 mg/kg)
  Insulin Level compared with vehicle: Lower

## NC(=O)COC(=O)C(Oc1cccc(C(F)(F)F)c1)c1ccc(Cl)cc1 (single isomer, unassigned; (-)) [(−)Analog 37]
C57BL/6j ob/ob Mice [1]; [6]
  plasma glucose concentrations vs vehicle: significantly reduced plasma glucose concentrations at 6 hours
  Glucose 6 hours: 271.7 ± 22.5 mg/dL
C57BL/6j ob/ob Mice [1]; [7]
  Predose Glucose: 373.4 ± 16.1 mg/dL

## CN(C)CCOC(=O)C(Oc1cccc(C(F)(F)F)c1)c1ccc(Cl)cc1 (racemic) [(±)Analog 35]
C57BL/6j ob/ob Mice [1]; [3]
  plasma glucose concentrations vs vehicle: significantly lowered plasma glucose concentrations at 30 and 54 hours
C57BL/6j ob/ob Mice [1]; [4]
  Glucose 6 hours: 319.6 ± 26.7 mg/dL
  Glucose 30 hours: 276.8 ± 17.6 mg/dL
  Glucose 54 hours: 286.2 ± 31.5 mg/dL
C57BL/6j ob/ob Mice [1]; [5]
  Predose Glucose: 387.0 ± 18.0 mg/dL

## OCC(Oc1ccc(C(F)(F)F)cc1)c1ccc(C(F)(F)F)cc1 (stereo not drawn) [Compound 128]
C57BL/6j ob/ob Mice [2]
  Potency: ++ (effective for glucose lowering at the dose of ≦125 mg/kg)
  Insulin Level compared with vehicle: Lower

## O=C(O)C(Oc1ccc(C(F)(F)F)cc1Cl)c1ccc(C(F)(F)F)cc1 (stereo not drawn) [Compound 89]
C57BL/6j ob/ob Mice [2]
  Potency: ++ (effective for glucose lowering at the dose of ≦125 mg/kg)
  Insulin Level compared with vehicle: Lower

## CC(=O)NCCOC(=O)C(Oc1cccc(C(F)(F)F)c1)c1ccc(C(F)(F)F)cc1 (stereo not drawn) [Compound 142]
C57BL/6j ob/ob Mice [2]
  Insulin Level compared with vehicle: Lower

## CC(Oc1ccc(C(F)(F)F)cc1)(C(=O)O)c1ccc(C(F)(F)F)cc1 (stereo not drawn) [Compound 121, 2-(4-Trifluoromethyl-phenoxy)-2-(4-trifluoromethyl-phenyl)-propionic acid]
C57BL/6j ob/ob Mice [2]
  Insulin Level compared with vehicle: Lower

## CN(C)C(=O)COC(=O)C(Oc1cccc(C(F)(F)F)c1)c1ccc(Cl)cc1 (single isomer, unassigned; (-)) [(−)Analog 38]
C57BL/6j ob/ob Mice [1]; [6]
  plasma glucose concentrations vs vehicle: significantly reduced plasma glucose concentrations at 6 hours
  Glucose 6 hours: 251.2 ± 23.6 mg/dL
C57BL/6j ob/ob Mice [1]; [7]
  Predose Glucose: 373.4 ± 16.1 mg/dL

## CCCCOC(=O)C(Oc1cccc(C(F)(F)F)c1)c1ccc(Cl)cc1 (racemic) [(±)Analog 33]
C57BL/6j ob/ob Mice [1]; [3]
  plasma glucose concentrations vs vehicle: significantly lowered plasma glucose concentrations at 6 and 54 hours
C57BL/6j ob/ob Mice [1]; [4]
  Glucose 6 hours: 227.5 ± 13.2 mg/dL
  Glucose 30 hours: 298.0 ± 15.3 mg/dL
  Glucose 54 hours: 286.6 ± 9.9 mg/dL
C57BL/6j ob/ob Mice [1]; [5]
  Predose Glucose: 292.0 ± 19.1 mg/dL

## O=C(O)C(Oc1ccc(C(F)(F)F)cn1)c1cccc(C(F)(F)F)c1 (stereo not drawn) [Compound 100, (3-Trifluoromethyl-phenyl)-(5-trifluoromethyl-pyridin-2-yloxy)-acetic acid]
C57BL/6j ob/ob Mice [2]
  Insulin Level compared with vehicle: Lower

## CC(=O)NCCOC(=O)C(Oc1cccc(C(F)(F)F)c1)c1ccc(Br)cc1 (single isomer, unassigned; (-)) [(−)Analog 29]
C57BL/6j ob/ob Mice [1]; [6]
  plasma glucose concentrations vs vehicle: significantly reduced plasma glucose concentrations at 6 hours
  Glucose 6 hours: 333.5 ± 16.1 mg/dL
C57BL/6j ob/ob Mice [1]; [7]
  Predose Glucose: 372.2 ± 17.1 mg/dL

## CC(=O)NCCOC(=O)C(Oc1ccc(C(F)(F)F)cc1)c1cccc(C(F)(F)F)c1 (stereo not drawn) [Compound 136, (4-trifluoromethyl-phenoxy)-(3-trifluoromethyl-phenyl)-acetic acid 2-acetylamino-ethyl ester]
C57BL/6j ob/ob Mice [2]
  Insulin Level compared with vehicle: Lower

## CC(=O)NCCOC(=O)C(Oc1cccc(C(F)(F)F)c1)c1cccc(C(F)(F)F)c1 (stereo not drawn) [Compound 144]
C57BL/6j ob/ob Mice [2]
  Insulin Level compared with vehicle: Lower

## O=C(O)C(Oc1cccc(C(F)(F)F)c1)c1ccc(C(F)(F)F)cc1 (stereo not drawn) [Compound 86]
C57BL/6j ob/ob Mice [2]
  Insulin Level compared with vehicle: Lower

## CC(Oc1ccc(C(F)(F)F)cc1)(C(=O)O)c1cccc(C(F)(F)F)c1 (stereo not drawn) [Compound 120, 2-(4-trifluoromethyl-phenoxy)-2-(3-trifluoromethyl-phenyl)-propionic acid]
C57BL/6j ob/ob Mice [2]
  Insulin Level compared with vehicle: Lower

## O=C(O)C(Oc1ccc(C(F)(F)F)cc1)c1cccc(C(F)(F)F)c1 (stereo not drawn) [(+)−39, (4-trifluoromethyl-phenoxy)-(3-trifluoromethyl-phenyl)-acetic acid]
C57BL/6j ob/ob Mice [2]
  minimal effective dose: ≤ 125 mg/kg

## CN(C)C(=O)COC(=O)C(Oc1cccc(C(F)(F)F)c1)c1ccc(Cl)cc1 (racemic) [(±)Analog 38]
C57BL/6j ob/ob Mice [1]; [3]
  plasma glucose concentrations vs vehicle: significantly lowered plasma glucose concentrations at 6, 30 and 54 hours
C57BL/6j ob/ob Mice [1]; [4]
  Glucose 6 hours: 303.2 ± 18.2 mg/dL
  Glucose 30 hours: 245.6 ± 15.6 mg/dL
  Glucose 54 hours: 243.1 ± 10.6 mg/dL
C57BL/6j ob/ob Mice [1]; [5]
  Predose Glucose: 329.4 ± 18.9 mg/dL

## CC(=O)NCCOC(=O)C(Oc1cccc(C(F)(F)F)c1)c1ccc(F)cc1 (racemic) [(±)Analog 14]
C57BL/6j ob/ob Mice [1]; [3]
  plasma glucose concentrations vs vehicle: significantly lowered plasma glucose concentrations at 6, 30 and 54 hours
C57BL/6j ob/ob Mice [1]; [4]
  Glucose 6 hours: 328.9 ± 34.1 mg/dL
  Glucose 30 hours: 267.0 ± 21.3 mg/dL
  Glucose 54 hours: 293.0 ± 29.4 mg/dL
C57BL/6j ob/ob Mice [1]; [5]
  Predose Glucose: 361.0 ± 17.1 mg/dL

## CC(=O)NCCOC(=O)C(Oc1ccc(C(F)(F)F)cc1)c1ccc(C(F)(F)F)cc1 (stereo not drawn) [Compound 145]
C57BL/6j ob/ob Mice [2]
  Insulin Level compared with vehicle: Lower

## CC(=O)NCCOC(=O)C(Oc1cccc(C(F)(F)F)c1)c1ccc(Br)cc1 (racemic) [(±)Analog 29]
C57BL/6j ob/ob Mice [1]; [3]
  plasma glucose concentrations vs vehicle: significantly lowered plasma glucose concentrations at 6, 30 and 54 hours
C57BL/6j ob/ob Mice [1]; [4]
  Glucose 6 hours: 299.7 ± 24.5 mg/dL
  Glucose 30 hours: 237.4 ± 14.9 mg/dL
  Glucose 54 hours: 293.3 ± 9.7 mg/dL
C57BL/6j ob/ob Mice [1]; [5]
  Predose Glucose: 387.1 ± 16.0 mg/dL

## CC(=O)NCCOC(=O)C(Oc1cc(C(F)(F)F)cc(C(F)(F)F)c1)c1ccc(C(F)(F)F)cc1 (stereo not drawn) [Compound 143]
C57BL/6j ob/ob Mice [2]
  Insulin Level compared with vehicle: Lower

## O=C(O)C(Oc1ccc(C(F)(F)F)cc1)c1cccc(C(F)(F)F)c1 (stereo not drawn) [(−)−39, (4-trifluoromethyl-phenoxy)-(3-trifluoromethyl-phenyl)-acetic acid]
C57BL/6j ob/ob Mice [2]
  Potency: ++ (effective for glucose lowering at the dose of ≦125 mg/kg)
  Insulin Level compared with vehicle: Lower

## O=C(O)C(Oc1cc(C(F)(F)F)cc(C(F)(F)F)c1)c1ccc(C(F)(F)F)cc1 (stereo not drawn) [Compound 81]
C57BL/6j ob/ob Mice [2]
  Insulin Level compared with vehicle: Lower

## CC(=O)NCCOC(=O)C(Oc1cccc(C(F)(F)F)c1)c1ccccc1C(F)(F)F (stereo not drawn) [Compound 147]
C57BL/6j ob/ob Mice [2]
  Insulin Level compared with vehicle: Lower

## O=C(NCCOC(=O)C(Oc1cccc(C(F)(F)F)c1)c1ccc(Cl)cc1)c1ccccc1 (single isomer, unassigned; (-)) [(−)Analog 36]
C57BL/6j ob/ob Mice [1]; [6]
  plasma glucose concentrations vs vehicle: significantly reduced plasma glucose concentrations at 6 hours
  Glucose 6 hours: 281.1 ± 18.2 mg/dL
C57BL/6j ob/ob Mice [1]; [7]
  Predose Glucose: 373.2 ± 15.5 mg/dL

## O=C(O)C(Oc1ccc(C(F)(F)F)cc1)c1cccc(C(F)(F)F)c1 (racemic) [Compound 39, (4-trifluoromethyl-phenoxy)-(3-trifluoromethyl-phenyl)-acetic acid]
C57BL/6j ob/ob Mice [2]
  minimal effective dose: ≤ 125 mg/kg
  Insulin Level compared with vehicle: Lower

## O=C(O)C(Oc1ccc(C(F)(F)F)cc1)c1ccc(C(F)(F)F)cc1 (stereo not drawn) [Compound 83]
C57BL/6j ob/ob Mice [2]
  Potency: ++ (effective for glucose lowering at the dose of ≦125 mg/kg)
  Insulin Level compared with vehicle: Lower

## O=C(NCCOC(=O)C(Oc1cccc(C(F)(F)F)c1)c1ccc(Cl)cc1)c1ccccc1 (racemic) [(±)Analog 36]
C57BL/6j ob/ob Mice [1]; [3]
  plasma glucose concentrations vs vehicle: significantly lowered plasma glucose concentrations at 30 and 54 hours
C57BL/6j ob/ob Mice [1]; [4]
  Glucose 6 hours: 300.5 ± 27.3 mg/dL
  Glucose 30 hours: 249.7 ± 8.6 mg/dL
  Glucose 54 hours: 272.2 ± 18.4 mg/dL
C57BL/6j ob/ob Mice [1]; [5]
  Predose Glucose: 329.7 ± 17.6 mg/dL

## CC(=O)NCCOC(=O)C(Oc1ccccc1C(F)(F)F)c1ccc(C(F)(F)F)cc1 (stereo not drawn) [Compound 146]
C57BL/6j ob/ob Mice [2]
  Insulin Level compared with vehicle: Lower
